Usually EC50 stands for the concentration giving half of the maximal effect.

This assay relates to HCV replicon. The assay can be described thus: HCV replicon replication assay (NPTII ELISA). As to conditions: Hepatitis C virus, Huh-7, 72 h, inhibition of HCV replicon replication in Huh-7 HCV replicon-containing cells, three days incubation, NPT level by ELISA; read-out: EC50. In kind it is cell-based, Hepatitis C virus (Huh-7 cells). The protocol: Compounds claimed herein are tested for the ability to inhibit viral replication of the Hepatitis C replicon in cultured cells in which the HCV replicon construct has been incorporated. The HCV replicon system was described by Bartenschlager, et. al (Science, 285, pp. 110-113 (1999)). The replicon system is predictive of in vivo anti-HCV activity; compounds that are active in humans uniformly evidence activity in the replicon assay.
In this assay HCV replicon containing cells are treated with different concentrations of the test compound to ascertain the ability of the test compound to suppress replication of the HCV replicon. As a positive control, HCV replicon-containing cells are treated with different concentrations of interferon alpha, a known inhibitor of HCV replication. The replicon assay system includes Neomycin Phosphotransferase (NPT) as a component of the replicon itself in order to detect the transcription of replicon gene products in the host cell. Cells in which the HCV replicon is actively replicating have high levels of NPT; the level of NPT is proportional to HCV replication. […] The NPT level of each sample is measured using a captured ELISA.
The HCV replicon contains, 5′-3′, the HCV-IRES, the neomycin phosphotransferase (neo) gene, the IRES of encephalomyocarditis virus, which directs translation of HCV sequences NS3 to NS5B, and the 3′-NTR. The sequence of the HCV replicon has been deposited in GenBank (Accession no. AJ242652).
The replicon is transfected into Huh-7 cells using standard methods such as electroporation.
The cells are then seeded onto 96-well plates at a density of 6000-7500 cells/100 microliters/well (6-7.5×10^5 cells/10 ml/plate). The plates are then incubated at 37° C. in a 5% CO2 incubator.
HCV replicon-containing cells are rinsed with once PBS once; 2 mls of trypsin are then added. Cells are incubated at 37° C. in a 5% CO2 incubator for 3-5 minutes. 10 mls of complete medium is added to stop the reaction. Cells are blown gently, put into a 15 ml tube, and spun at 1200 rpm for four minutes. The trypsin/medium solution is removed and 5 mls of medium (500 ml DMEM (high glucose)) from BRL catalog #12430-054; 50 mls 10% FBS, 5% Geneticin G418 (50 mg/ml, BRL catalog #10131-035), 5 ml MEM non-essential amino acids (100× BRL #11140-050) and 5 ml pen-strep (BRL #15140-148) is added. The cells and media are mixed carefully
Cells are plated with screening medium (500 ml DMEM (BRL #21063-029), 50 ml FBS (BRL #10082-147) and 5 ml MEM non-essential amino acid (BRL #11140-050) at 6000-7500 cells/100 μl/well of 96 well plate (6-7.5×10^5 cells/10 ml/plate). Plates are placed into 37° C. 5% CO2 incubator overnight.
The following morning, drugs (test compounds or interferon alpha) are diluted in 96 well U bottom plates with media or DMSO/media, depending on the final concentration chosen for screening. Generally for 6 concentrations of each test compounds ranging from 10 micromolar to 0.03 micromolar are applied. 100 μl of the test compound dilution is placed in wells of the 96 well plate containing the HCV replicon cells. Media without drug is added to some wells as a negative controls. DMSO is known to affect cell growth. Therefore, if drugs diluted in DMSO are used, all wells, including negative control (media only) and positive control (interferon alpha) wells, must contain the same concentration of DMSO, for single dose screening. The plates are incubated at 37° C. in a humidified 5% CO2 environment for three days.
On day four, the NTPII assay is quantitated. The medium is poured from the plates and the plates are washed once in 200 μl of PBS. The PBS is then decanted and the plates tapped in a paper towel to remove any remaining PBS. Cells are fixed in situ with 100 μl/well of pre-cooled (−20° C.) methanol:acetone (1:1) and the plates are placed at −20° C. for 30 minutes.
The fixing solution is poured from the plates and the plates allowed to air-dry completely (approximately one hour). […]
In general terms: In antiviral work, replicon cells carry a viral genome segment that copies itself.

As for `CCCCCOc1ccc(N(C(=O)C(=O)OC)c2nc(-c3cccnc3)cs2)cc1F` [Compound 27, methyl 2-((3-fluoro-4-(pentyloxy)phenyl)(4-(pyridin-3-yl)thiazol-2-yl)amino)-2-oxoacetate], the EC50 was under 1000 nM.

In the case of `CCCCCOc1ccc(N(C(=O)C(=O)OC)c2nc(-c3cccnc3)cs2)cc1C(F)(F)F` [Compound 28, methyl 2-oxo-2-((4-(pentyloxy)-3-(trifluoromethyl)phenyl)(4-(pyridin-3-yl)thiazol-2-yl)amino)acetate], the concentration for a half-maximal effect (EC50) was under 1000 nM.

Take `CCCCCOc1ccc(N(C(C)=O)c2nc(CNC(C)=O)cs2)cc1C(F)(F)F` [Compound 29, N-(4-(acetamidomethyl)thiazol-2-yl)-N-(4-(pentyloxy)-3-(trifluoromethyl)phenyl)acetamide]: the 50% effective concentration (EC50) was 1000 to 10000 nM.

Turning to `CCCCCOc1ccc(N(C(=O)C(=O)OC)c2nc(C(=O)Nc3cccnc3)cs2)cc1C(F)(F)F` [Compound 30, methyl 2-oxo-2-((4-(pentyloxy)-3-(trifluoromethyl)phenyl)(4-(pyridin-3-ylcarbamoyl)thiazol-2-yl)amino)acetate], the EC50 was under 1000 nM.

As to `CCCCCOc1ccc(N(C(=O)OC)c2nc(-c3cccnc3)cs2)cc1C(F)(F)F` [Compound 31, methyl 4-(pentyloxy)-3-(trifluoromethyl)phenyl(4-(pyridin-3-yl)thiazol-2-yl)carbamate], the 50% effective concentration (EC50) was under 1000 nM.

Regarding `CCCCCOc1ccc(N(C(=O)C2CCCCC2)c2nc(-c3cccnc3)cs2)cc1C(F)(F)F` [Compound 32, N-(4-(pentyloxy)-3-(trifluoromethyl)phenyl)-N-(4-(pyridin-3-yl)thiazol-2-yl)cyclohexanecarboxamide], the EC50 is under 1000 nM.

Regarding `CCCCCOc1ccc(N(C(=O)COC(C)=O)c2nc(-c3cccnc3)cs2)cc1C(F)(F)F` [Compound 33, 2-oxo-2-((4-(pentyloxy)-3-(trifluoromethyl)phenyl)(4-(pyridin-3-yl)thiazol-2-yl)amino)ethyl acetate], the EC50 is under 1000 nM.

Regarding `CCCCCOc1ccc(N(C(=O)c2cc(C)on2)c2nc(-c3cccnc3)cs2)cc1C(F)(F)F` [Compound 34, 5-methyl-N-(4-(pentyloxy)-3-(trifluoromethyl)phenyl)-N-(4-(pyridin-3-yl)thiazol-2-yl)isoxazole-3-carboxamide], the concentration giving a half-maximal response (EC50) is under 1000 nM.

In the case of `CCCCCOc1ccc(N(C(=O)C(=O)OC)c2nc(-c3ccncc3)cs2)cc1C(F)(F)F` [Compound 35, methyl 2-oxo-2-((4-(pentyloxy)-3-(trifluoromethyl)phenyl)(4-(pyridin-4-yl)thiazol-2-yl)amino)acetate], the EC50 is under 1000 nM.

On to `CCCCCOc1ccc(N(C(=O)OC)c2nc(-c3ccncc3)cs2)cc1C(F)(F)F` [Compound 36, methyl 4-(pentyloxy)-3-(trifluoromethyl)phenyl(4-(pyridin-4-yl)thiazol-2-yl)carbamate], for which the concentration giving a half-maximal response (EC50) is under 1000 nM.

With `CCCCCOc1ccc(N(C(=O)C(=O)OC)c2nc(-c3ccc(F)cc3F)cs2)cc1C(F)(F)F` [Compound 37, methyl 2-((4-(2,4-difluorophenyl)thiazol-2-yl)(4-(pentyloxy)-3-(trifluoromethyl)phenyl)amino)-2-oxoacetate], the EC50 was under 1000 nM.

Regarding `CCCCCOc1ccc(N(C(=O)C(=O)OC)c2nc(-c3ccc(F)cc3)cs2)cc1C(F)(F)F` [Compound 38, methyl 2-((4-(4-fluorophenyl)thiazol-2-yl)(4-(pentyloxy)-3-(trifluoromethyl)phenyl)amino)-2-oxoacetate], the EC50 is under 1000 nM.

For `CCCCCCCCc1ccc(N(C(=O)C(=O)OC)c2nc(-c3cccnc3)cs2)cc1` [Compound 39, methyl 2-((4-octylphenyl)(4-(pyridin-3-yl)thiazol-2-yl)amino)-2-oxoacetate], the EC50 is under 1000 nM.

In the case of `CCCCCCCOc1ccc(N(C(=O)C(=O)OC)c2nc(-c3cccnc3)cs2)cc1` [Compound 40, methyl 2-((4-(heptyloxy)phenyl)(4-(pyridin-3-yl)thiazol-2-yl)amino)-2-oxoacetate], the EC50 was under 1000 nM.

On to `CCCCCOc1ccc(N(C(=O)CN(C)C)c2nc(-c3cccnc3)cs2)cc1C(F)(F)F` [Compound 41, 2-(dimethylamino)-N-(4-(pentyloxy)-3-(trifluoromethyl)phenyl)-N-(4-(pyridin-3-yl)thiazol-2-yl)acetamide], for which the EC50 was under 1000 nM.

For `CCCCCOc1ccc(N(C(=O)CC(=O)OC)c2nc(-c3ccc(F)cc3)cs2)cc1F` [Compound 42, methyl 3-((3-fluoro-4-(pentyloxy)phenyl)(4-(4-fluorophenyl)thiazol-2-yl)amino)-3-oxopropanoate], the concentration for a half-maximal effect (EC50) is under 1000 nM.

For the compound `CCCCCOc1ccc(N(C(=O)CC(=O)OC)c2nc(-c3ccc(F)cc3)cs2)cc1C(F)(F)F` [Compound 43, methyl 3-((4-(4-fluorophenyl)thiazol-2-yl)(4-(pentyloxy)-3-(trifluoromethyl)phenyl)amino)-3-oxopropanoate], the half-maximal effective concentration (EC50) was under 1000 nM.

Turning to `CCCCCCCCOc1ccc(N(C(=O)CC(=O)OC)c2nc(-c3ccc(F)cc3)cs2)cc1` [Compound 44, methyl 3-((4-(4-fluorophenyl)thiazol-2-yl)(4-(octyloxy)phenyl)amino)-3-oxopropanoate], the EC50 was under 1000 nM.

Take `CCCCCOc1ccc(N(C(=O)C(=O)OC)c2nc(-c3ccc(F)cc3)cs2)cc1F` [Compound 45, methyl 2-((3-fluoro-4-(pentyloxy)phenyl)(4-(4-fluorophenyl)thiazol-2-yl)amino)-2-oxoacetate]: the EC50 is under 1000 nM.

With `CCCCCOc1ccc(N(C(=O)OC)c2nc(-c3ccc(F)cc3)cs2)cc1F` [Compound 46, methyl 3-fluoro-4-(pentyloxy)phenyl(4-(4-fluorophenyl)thiazol-2-yl)carbamate], the EC50 fell in the range of 1000 to 10000 nM.

Turning to `CCCCCOc1ccc(N(C(=O)OC)c2nc(-c3ccc(F)cc3)cs2)cc1C(F)(F)F` [Compound 47, methyl 4-(4-fluorophenyl)thiazol-2-yl(4-(pentyloxy)-3-(trifluoromethyl)phenyl)carbamate], the half-maximal effective concentration (EC50) is under 1000 nM.

In the case of `CCCCCCCCOc1ccc(N(C(=O)OC)c2nc(-c3ccc(F)cc3)cs2)cc1` [Compound 48, methyl 4-(4-fluorophenyl)thiazol-2-yl(4-(octyloxy)phenyl)carbamate], the EC50 lay in the range of 1000 to 10000 nM.

As for `CCCCCOc1ccc(N(C(N)=O)c2nc(-c3cccnc3)cs2)cc1C(F)(F)F` [Compound 49, 1-(4-(pentyloxy)-3-(trifluoromethyl)phenyl)-1-(4-(pyridin-3-yl)thiazol-2-yl)urea], the EC50 is under 1000 nM.

As for `CCCCCOc1ccc(N(C=O)c2nc(-c3cccnc3)cs2)cc1C(F)(F)F` [Compound 50, N-(4-(pentyloxy)-3-(trifluoromethyl)phenyl)-N-(4-(pyridin-3-yl)thiazol-2-yl)formamide], the EC50 was under 1000 nM.

As for `CCCCCN(C)c1ccc(N(C(=O)COC(C)=O)c2nc(-c3cccnc3)cs2)cc1C(F)(F)F` [Compound 51, 2-((4-(methyl(pentyl)amino)-3-(trifluoromethyl)phenyl)(4-(pyridin-3-yl)thiazol-2-yl)amino)-2-oxoethyl acetate], the EC50 was under 1000 nM.

In the case of `CCCCCN(C)c1ccc(N(C(=O)c2cc(C)on2)c2nc(-c3cccnc3)cs2)cc1C(F)(F)F` [Compound 52, 5-methyl-N-(4-(methyl(pentyl)amino)-3-(trifluoromethyl)phenyl)-N-(4-(pyridin-3-yl)thiazol-2-yl)isoxazole-3-carboxamide], the half-maximal effective concentration (EC50) was under 1000 nM.
